Assays:
[1] = Safety: monitoring all adverse events during and after the PDT treatment; type: in vivo, human; conditions: single topical QLT0074 ointment 0.2% w/w plus 50 or 75 J/cm^2 red light; 10 subjects
Protocol: A total of 10 subjects were treated. All subjects were human males over 18 years of age and had type II or III Vertex alopecia, rated according to the modified Hamilton-Norwood scale.
All subjects received a single application of topical QLT0074 ointment 0.2% weight in weight (w/w) to two of three circular test sites on the vertex area of the scalp. The amount of ointment applied to each test site was approximately 224 mg (about 0.44mg of photosensitizer per test site). After 2 hours the excess drug was removed and red light (LED's—690nm) was administered to two of the three sites. The other test site served as a control with no drug or light administration.
Two light dose cohorts (50 and 75 J/cm^2) were investigated with each cohort having 5 subjects.
Safety was assessed by monitoring all adverse events during and after the treatment.

[2] = system: human males with type II or III Vertex alopecia; test: Terminal hair counts 3 months after single topical PDT treatment, compared to baseline; type: in vivo; conditions: 3 months after treatment vs baseline, 5 subjects
Excerpt: As used herein, the term “hair growth” refers to an increase in number of terminal hairs present. Terminal hair counts can be conducted in a number of ways. For example, the terminal hair can be counted by trained and validated technicians who perform a computer-assisted count on macrophotographs. In brief, a target area on the scalp is chosen, the hair clipped and the scalp permanently marked with a single dot tattoo in the center in order to facilitate the exact positioning at each subsequent photo session. The macrophotography is performed using a preset camera with a macro lens and a stand that provides a constant reproduction ratio and electronic flashes that reproducibly illuminate the area to photograph. The images are taken in triplicate, centering the camera using the tattoo and the color slide films are processed at a central facility. The quality of the images is assessed and large transparencies are made of the best images. The terminal hairs on the target circle of the transparencies are then counted by the trained technicians.
A total of 10 subjects were treated. All subjects were human males over 18 years of age and had type II or III Vertex alopecia, rated according to the modified Hamilton-Norwood scale. […]
The efficacy was assessed by hair counts 3 months after the treatment and compared to baseline counts.

[3] = topical 0.5% hematoporphyrin and UVA three times a week for eight weeks; first week of treatment; cited from earlier work
alopecia areata = conditions: cited from earlier work

Compound: C=Cc1c(C)c2cc3nc(cc4[nH]c(cc5nc(cc1[nH]2)C(C)=C5CCC(=O)OCCO)c(CCC(=O)OCCO)c4C)[C@@]1(C)C3=CC=C(C(=O)OC)[C@H]1C(=O)OC [QLT0074]
- serious adverse events [1]: No serious adverse events were reported
- % change in terminal hair count ([2]; 50 J/cm^2 red light (690nm) 2 hours after topical QLT0074 ointment 0.2% w/w): +8%
- % change in terminal hair count ([2]; 75 J/cm^2 red light (690nm) 2 hours after topical QLT0074 ointment 0.2% w/w): +4%

Compound: CC1=C(CCC(=O)O)c2cc3[nH]c(cc4nc(cc5[nH]c(cc1n2)c(C)c5C(C)O)C(C)=C4C(C)O)c(C)c3CCC(=O)O (stereo not drawn) [hematoporphyrin]
- skin reactions at treated sites [3]: significant erythema and mild scaling followed by hyperpigmentation

Compound: COc1c2occc2c(OC)c2c(=O)cc(C)oc12 [khellin]
- patients treated successfully (alopecia areata; 2% khellin and UVA, alopecia areata): 5 of the 10
- phototoxicity (alopecia areata; khellin and UVA): did not cause phototoxicity

— patent US20060265028A1, “Hair growth” (QLT INC., priority 2003, published 2006)
